Literature values in publication PMC3775475 (European journal of medicinal chemistry, 2013).
pKi: −log10 of the molar value.

Target: kappa-OR (UniProt P41145)
Sequence (P41145 whole entry): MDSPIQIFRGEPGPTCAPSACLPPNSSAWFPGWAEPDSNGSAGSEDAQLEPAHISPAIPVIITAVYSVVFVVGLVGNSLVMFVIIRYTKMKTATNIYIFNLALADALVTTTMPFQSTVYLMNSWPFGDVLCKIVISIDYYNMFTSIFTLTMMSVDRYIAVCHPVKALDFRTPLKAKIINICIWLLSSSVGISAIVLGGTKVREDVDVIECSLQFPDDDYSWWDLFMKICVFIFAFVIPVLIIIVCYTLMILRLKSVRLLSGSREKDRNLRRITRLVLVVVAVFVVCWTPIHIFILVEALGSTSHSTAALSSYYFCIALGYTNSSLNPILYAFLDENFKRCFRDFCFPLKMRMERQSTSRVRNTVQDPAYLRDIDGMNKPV

Compound | pKi
CC[C@@H](C)[C@@H](NC(=O)[C@@H](Cc1ccccc1)NC(=O)[C@H](N)Cc1ccccc1)C(=O)N[C@H](CCCNC(=N)N)C(N)=O [compound 4] | 8.62
ff(D-nle)r-NH2 (R1 f, R2 f, R3 nle, R4 r) [compound 1] | 8.92
